The values below come from patent US6211209A, “Method of inhibiting connective tissue degradation” (Warner-Lambert Company, priority 1998, dated 2001).

Molecules are shown by their SMILES.

Broadly, the IC50 is the midpoint of a concentration-inhibition curve. Read a low IC50 as greater potency in that assay.

For one test, the system named is bovine nasal cartilage. In words: Bovine nasal cartilage assay: inhibition of IL-1β-induced proteoglycan loss (chondroitin sulfate by 1,9 DMB). Format: cell-based. The note with it: Bos taurus; concentration preventing 50% of proteoglycan loss; IL-1β-stimulated cartilage plugs. As to the method:
The BNC (bovine nasal cartilage) assay provides a model for evaluating chrondroprotective compounds that block cartilage degradation through inhibition of enzyme activity or by altering the gene expression of the matrix metalloproteinases such as stromelysin.
The assay is accomplished in two phases. The cartilage plugs are first incubated with IL-1β in the presence of the compounds of the present method. The amount of proteoglycan released is then quantified by measuring chondroitin sulfate present in the media using the 1,9-Dimethylmethylene Blue Assay (1,9 DMB).
Bovine nasal septum is dissected free of surrounding tissue and wiped with 70% alcohol. A sterile cork borer is used to remove 5-mm cartilage disks of 2- to 3-mm thickness. Explants are equilibrated for 96 hours in F-12 supplemented with 10% fetal calf serum (FCS) and antibiotics at 37° C. in a humidified atmosphere of 95% air and 5% CO2. Explants are then rinsed with 1 mL F-12 Nutrient Mixture (without phenol red) in order to remove traces of FCS. Each treatment group is done in triplicate allowing: controls (500 μL F-12 medium +110 μL PBS with 0.1% BSA +7 μL DMSO); IL-1β (500 μL F-12 medium without phenol red +100 μL IL-1β (500 U) +7 μL DMSO +10 μL PBS with 0.1% BSA); and dose responses (10, 1, and 0.1 μM) (F-12 medium without phenol red +100 μL IL-1β (500 U) +7 μL compound dissolved in DMSO +10 μL PBS with 0.1% BSA), to be tested per each 24-well plate. The cartilage plugs are incubated in the presence of conditioned media (IL-1β+compound) for 48 hours. Fresh unconditioned media (no IL-1β or compound) is added and incubated for an additional 24 hours. Both the conditioned and unconditioned media are collected and saved for analysis using the 1,9 DMB assay.
The ability of a compound to inhibit proteoglycan released from the cartilage plugs is quantified by measuring chondroitin sulfate. This is done using the calorimetric 1,9 DMB assay. Depending on the amount of chondroitin sulfate present in the media a color change will occur turning the normally deep blue dye, vivid pink. This color change is measured using a Titertek Multiscan MCC 340 plate reader at 540 nm. A Cetus Pro/Pette is used to speed dilution and pipetting steps. The Cetus uses Sarstedt vials, designed for radioimmune assays, which have been inserted into Sarstedt 96-vial aluminum racks. The first row of 12 slots is left empty in order to accommodate the chondroitin sulfate standards (0.01-0.32 μg/mL shark chondroitin sulfate in 0.1 M phosphate buffer, pH 7.0, containing 0.01 M L-cysteine HCl and 0.05 M EDTA). It is necessary to dilute (1:5, 1:10) the medium before a […] is performed by adding 10 μL of collected media to 290 μL DMF (16 mg dye/1 L of 0.1 M formate buffer, pH 3.5, containing 5 mL ethanol) and reading at […]. Dilutions are performed on both the 48-hour and 72-hour media samples collected and saved earlier. Once the experiment has been completed, in order to determine the total amount of proteoglycan remaining in the plugs, they are subjected to papain digestion. Cartilage explants are digested in 20-mL glass scintillation vials by adding 50 μL papain in 1.0 mL cysteine buffer (0.01 M phosphate buffer, pH 7.0 containing 0.01 M L-cysteine HCl and 0.05 M EDTA). Digested material is diluted (1:60) and chondroitin sulfate values determined using the 1,9 DMB assay.
Determination of chondroitin sulfate in each sample is accomplished by subtracting the constant value determined from the linear regression performed on the standard curve, from the O.D. value for a particular well, and then dividing by the X coefficient calculated from the linear regression done on the standard curve. Each experimental well is split into two samples for determining chondroitin sulfate values, then the two are averaged. […]
The molecule `O=c1[nH]nc(-c2ccccc2Nc2ccccc2)o1` [Compound 2, 5-(2-Phenylamino-phenyl)-3H-[1,3,4]oxadiazol-2-one] had an IC50 of 40.8 µM.

Turning to `Cc1cccc(Nc2ccccc2-c2n[nH]c(=S)o2)c1C` [Compound 3, 5-[2-(2,3-Dimethyl-phenylamino)-phenyl]-3H-[1,3,4]oxadiazole-2-thione], the IC50 turned out to be 31 µM.

`Cc1ccc(Cl)c(Nc2ccccc2-c2n[nH]c(=S)o2)c1Cl` [Compound 4, 5-[2-(2,6-Dichloro-3-methyl-phenylamino)-phenyl]-3H-[1,3,4]oxadiazole-2-thione] displayed a 50% inhibitory concentration (IC50) of 26.8 µM.

Molecule `Cc1ccc(Cl)c(Nc2ccccc2-c2n[nH]c(=S)[nH]2)c1Cl` [Compound 5, 5-[2-(2,6-Dichloro-3-methyl-phenylamino)-phenyl]-2,4-dihydro-[1,2,4]triazole-3-thione] registered an IC50 of 9.9 µM.

Consider `Cc1ccc(Cl)c(Nc2ccccc2C(=O)NNC(N)=S)c1Cl` [Compound 6, 2-[(2,6-dichloro-3-methylphenyl)amino]-,2-(aminothioxomethyl)hydrazide], for which 1.3 µM corresponded to half-maximal inhibition (IC50).

The molecule `Cc1ccc(Cl)c(Nc2ccccc2-c2n[nH]c(=S)n2C)c1Cl` [Compound 8, 5-[2-(2,6-Dichloro-3-methyl-phenylamino)-phenyl]-4-methyl-2,4-dihydro-[1,2,4]triazole-3-thione] displayed a 50% inhibitory concentration (IC50) of 4.9 µM.

Take `CC(C)(C)c1cc(Nc2ccccc2-c2n[nH]c(=S)o2)cc(C(C)(C)C)c1O` [Compound 9, 5-[2-(3,5-Di-tert-butyl-4-hydroxy-phenylamino)-phenyl]-3H-[1,3,4]oxadiazole-2-thione]: the IC50 was found to be 23.2 µM.

The molecule `CC(O)c1cccc(Nc2ccccc2-c2n[nH]c(=S)o2)c1Cl` (stereo not drawn) [Compound 10, 5-{2-[2-Chloro-3-(1-hydroxy-ethyl)-phenylamino]-phenyl}-3H-[1,3,4]oxadiazole-2-thione] showed a half-inhibitory concentration (IC50) of 18.9 µM.

The molecule `Cc1ccc(Cl)c(Nc2ccccc2C=C2SC(=S)NC2=O)c1Cl` [Compound 11, 5-[2-(2,6-Dichloro-3-methyl-phenylamino)-benzylidene]-2-thioxo-thiazolidin-4-one] yielded an IC50 of 1.3 µM.

Take `Cc1ccc(Cl)c(Nc2ccccc2-c2nnc(NC#N)s2)c1Cl` [Compound 12, Cyanamide, [5-[2-[(2,6-dichloro-3-methylphenyl)amino]phenyl]-1,3,4-thiadiazol-2-yl]-]: the 50% inhibitory concentration (IC50) was 6.4 µM.

In the case of `CCOC(=O)N(O)C(C)c1cccc(Nc2ccccc2-c2n[nH]c(=S)o2)c1Cl` (stereo not drawn) [Compound 13, Carbamic acid, [1-[2-chloro-3-[[2-(4,5-dihydro-5-thioxo-1,3,4-oxadiazol-2-yl)phenyl]amino]phenyl]ethyl]hydroxy-, ethyl ester], the IC50 was determined as 5.3 µM.

For `Cc1ccc(Cl)c(Nc2ccccc2C=C2SC(=O)NC2=O)c1Cl` [Compound 15, 5-[2-(2,6-Dichloro-3-methyl-phenylamino)-benzylidene]-thiazolidine-2,4-dione], the IC50 was determined as 4.5 µM.

Molecule `CNC(=O)N(O)C(C)c1cccc(Nc2ccccc2-c2n[nH]c(=S)o2)c1Cl` (stereo not drawn) [Compound 16, Urea, N-[1-[2-chloro-3-[[(4,5-dihydro-5-thioxo-1,3,4-oxadiazol-2-yl)phenyl]amino]phenyl]ethyl]-N-hydroxy-N'-methyl-] yielded an IC50 of 1.4 µM.

Molecule `Cc1ccc(Cl)c(Nc2ccccc2/C=C2\SC(NC#N)=NC2=O)c1Cl` [Compound 17, Cyanamide, [5-[[2-[(2,6-dichloro-3-methylphenyl)amino]phenyl]methylene]-4,5-dihydro-4-oxo-2-thiazolyl]-, (Z)-] showed an IC50 of 0.8 µM.

Molecule `Cc1ccc(Cl)c(Nc2ccccc2-c2nsc(NC#N)n2)c1Cl` [Compound 18, Cyanamide, [3-[2-[(2,6-dichloro-3-methylphenyi)amino]phenyl]-1,2,4-thiadiazol-5-yl]-] returned an IC50 of 0.3 µM.

The test system of a further test is 92 kDa gelatinase. Briefly: Gelatin zymography of bovine nasal cartilage conditioned media: expression of 92 kDa gelatinase. Format: cell-based. The note with it: various concentrations, IL-1β-induced, FIG. 1. As for the experimental part:
(§1) To evaluate the effects of the compounds of the present invention on the expression of 72 kDa and 92 kDa gelatinases, samples obtained from the bovine nasal cartilage study (described above) were subjected to gelatin zymography.
(§2) Separating gels (8%) were made by combining 400 μL gelatin (25 mg/mL) with: 2.5 mL Tris (1.5 M); 100 μL SDS (10%); 2.6 mL acrylamide (30%); 10 μL TEMED; 4.6 mL dH2 O; 100 μL ammonium persulfate (10%). Stacking gels (4.5%) were formed by combining: 2.5 mL Tris (0.5 M); 100 μL SDS (10%); 1.5 mL acrylamide (30%); 10 μL TEMED; 5.8 mL dH2 O; 100 μL ammonium persulfate (10%).
(§3) Bovine nasal cartilage conditioned media was diluted (1:15) using sample buffer 1X (2% SDS, 15% glycerol, 0.01% bromophenol blue, 0.25M Trizma Base, pH 6.8). Thirty microliters of each of the diluted samples and molecular weight standards were subjected to electrophoresis at 4° C. under constant current conditions (20 mA of current/gel) using Tris/Glycine running buffer (0.5 M Trizma Base, pH 8.8 using glycine, 1% SDS) that was diluted 1:20 before use.
After completion of the electrophoretic procedure, the gel was first washed twice for 15 minutes in 2.5% Triton X-100. The gel was then rinsed with the gel incubation buffer (0.05 M Tris, pH 8.2, 0.005 M CaCl2, 0.5 μM ZnCl2) and incubated overnight in this buffer at 37° C. After the incubation period, the gel was stained for 30 minutes in 0.125% Coomassie and destained using 10% methanol/5% acetic acid destaining solution.
Turning to `Cc1ccc(Cl)c(Nc2ccccc2C=C2SC(=S)NC2=O)c1Cl` [Compound 11, 5-[2-(2,6-Dichloro-3-methyl-phenylamino)-benzylidene]-2-thioxo-thiazolidin-4-one], the “inhibiting expression of IL-1β-induced 92 kDa gelatinase” value was “effective in inhibiting expression of IL-1β-induced 92 kDa gelatinase in a dose-dependent manner”.

The test is the same for the next values; noted with them: versus 72 kDa gelatinase.
`Cc1ccc(Cl)c(Nc2ccccc2C=C2SC(=S)NC2=O)c1Cl` [Compound 11, 5-[2-(2,6-Dichloro-3-methyl-phenylamino)-benzylidene]-2-thioxo-thiazolidin-4-one]: the “specificity of effects (92 kDa versus 72 kDa gelatinase)” value is on record as “specific to 92 kDa”.

In a further test the test system is 72 kDa gelatinase. Briefly: Gelatin zymography of bovine nasal cartilage conditioned media: expression of 72 kDa gelatinase. The note with it: various concentrations, FIG. 1. Format: cell-based. As for the experimental part:
as §1, §2, §3
After completion of the electrophoretic procedure, the gel was first washed twice for 15 minutes in 2.5% Triton X-100. The gel was then rinsed with the gel incubation buffer (0.05 M Tris, pH 8.2, 0.005 M CaCl2, 0.5 μM ZnCl2) and incubated overnight in this buffer at 37° C. […]
For the molecule `Cc1ccc(Cl)c(Nc2ccccc2C=C2SC(=S)NC2=O)c1Cl` [Compound 11, 5-[2-(2,6-Dichloro-3-methyl-phenylamino)-benzylidene]-2-thioxo-thiazolidin-4-one], the “effect on expression of 72 kDa gelatinase” value is recorded as “no effect on expression of 72 kDa gelatinase”.
